Patent US20070053831A1, “Methods for binding agents to b-amyloid plaques” (priority 2003, published 2007)
Values belong to the compound of their own block, whether it stands above or below them.

What was measured:
β-amyloid (1-40) fibrils = target: T1, β-amyloid (1-40) fibrils (Homo sapiens, UniProt P05067); test: In vitro competition assay with [18F]FDDNP on synthetic β-amyloid (1-40) fibrils (vacuum filtration); type: binding; details: for Ki: synthetic β-amyloid (1-40) fibrils, 1 h, PBS pH 7.4, ±SD, read-out: Ki (decrease in the binding of [18F]FDDNP); for dose dependent decrease in the specific binding of [18F]FDDNP: 0.1 pM to 83 μM of nonradioactive agent
T1 construct: β-amyloid (1-40) (Biosource, Camarillo, Calif.) fibrils were prepared; purchased Biosource, Camarillo, Calif; host or cells: synthetic peptide
T1 sequence (P05067 672-711 limits assumed): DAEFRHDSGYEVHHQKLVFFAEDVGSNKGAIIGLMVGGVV
Procedure: Potential therapeutic agents were evaluated to determine their ability to bind to β-amyloid fibrils. • Amyloid (1-40) fibril formation. β-amyloid (1-40) (Biosource, Camarillo, Calif.) fibrils were prepared. 0.5 mg of β-amyloid (1-40) was dissolved in 1 mL PBS, pH 7.4 and mixed with a magnetic stir bar for 3 days at 37° C. resulting in a visibly cloudy solution. Fibrils were used immediately after their production was confirmed. The production of 13-amyloid fibrils was confirmed by imaging with a Jeol 100CX transmission electron microscope (Jeol, Peabody, Mass.). A 5 μL drop from a fibril solution was allowed to settle for 30 s on a treated copper grid before being washed away with a drop of 2% uranyl acetate solution. Finally, an additional drop of 2% uranyl acetate was added to the grid to negatively stain the fibrils. Fibrils were used immediately after their production was confirmed. Additional tests for fibril formation using Congo red (CR, Sigma) and Thioflavine T (TT, Sigma) were performed, as well. The absence of fibrils in the filtrate in the in vitro competition assays described below was determined by the same tests using CR. In vitro competition assays with [^18[…] against NSAIDs and charge amyloid dyes. Solutions of nonradioactive agents, namely (S)-naproxen (Sigma), (R)-ibuprofen (BIOMOL, Plymouth Meeting, Pa.), (S)-ibuprofen (Sigma), diclofenac (Sigma), CR and TT, were prepared fresh for each radioactive competition assay. APFF glass fiber filters (0.7 μm particle retention; Millipore, Bedford, Mass.) were used in a 1225 sampling manifold (Millipore) that was modified with stainless steel support screens (Millipore) and glass sample chambers. Vacuum filtration involved 0.865 μg/mL of in vitro fibrils of synthetic β-amyloid (1-40) and 37 MBq/mL of [^18[…] incubated for 1 h in PBS, pH 7.4 (1% ethanol) with various concentrations of the nonradioactive agents with the range of 0.1 pM to 83 μM. Each filter was then washed twice with 3 ml of PBS, pH 7.4. The radioactivity retained by the filters was measured and decay-corrected to a common reference time with a Packard Cobra II Auto-Gamma gamma counter (Packard, Meriden, Conn.). […] All competition assays were performed in triplicate. Competition results were analyzed and then Ki values calculated using the Ligand Binding Module for SigmaPlot 2001 (SPSS, Chicago, Ill.).

senile plaques = test: Digital autoradiography with [18F]FDDNP of AD brain specimens pretreated with nonradioactive agents; type: binding, human
Procedure: Brain specimens from a postmortem-diagnosed definite AD patient were treated. Briefly, formalin-treated, cryoprotected brain specimens were sectioned 70 μm thick coronally mounted on gelatine-coated glass slides, allowed to dry, and were defatted for 40 min in xylene prior to rinsing of the tissue with ethanol. Finally, lipofuscin autofluorescence in some brain specimens was quenched prior to staining using 10 mM CuCl2 in 50 mM ammonium acetate buffer, pH 5. The quenching determined the origin of lipofuscin fluorescence in brain specimens. […] Pretreated and cryosections with no competitor were incubated for 25 min at room temperature with […] of [^18[…] dissolved in 10 mL of 1% ethanol in 0.9% saline (w/v) per cryosection. Following incubation, the sections were optimally washed with water (30 sec); 60% 2-methyl-2-butanol (3 min; Sigma) agitated at 40 RPMs on a Junior Orbit Shaker (Lab-Line Instruments, Melrose Park, Ill.) for differentiation (Bancroft and Stevens, 1990); and then water (30 sec). The sections were dried on a warm hot plate with a steady stream of warm air, exposed to β^+-sensitive phosphor plates for 40 min Fuji Film Medical Systems USA, Stamford, Conn.), and scanned with a FUJI BAS 5000 Phosphorimager (Fuji) at a resolution of 25 μm, as described previously ([…] et al., 2001a). […] FIG. 2Q) in the autoradiograms. Autoradiography was carried out at least in triplicate for each competitor. Statistical analysis of the autoradiograms involved one-way ANOVA with Dunnett's post test using Prism 3.02 (GraphPad, San Diego, Calif.) to compare the differences in the ratio of gray matter-to-white matter (FIG. 2Q) radioactivity of [^18]FDDNP in autoradiograms pretreated with the nonradioactive agents and without pretreatment. Unpaired t-tests were performed to compare the difference of measured [^18[…] radioactivity per area of tissue (Bq/mm^2) in the gray and white matter of each autoradiogram. The same brain specimens used for autoradiography were observed using fluorescence microscopy. Tissues were mounted with Vectashield (Vector, Burlingame, Calif.) and observed with a Nikon Labophot fluorescence microscope (Nikon USA, Melville, N.Y.) with a FITC filter set.

amyloid plaques = details: cited from earlier work
[1] = Storage of DDNP stock solution; type: physicochemical; details: 8 mM in 100% ethanol, freezer; used at 1/100 to 1/1,000 dilutions
Procedure: (§1) A 2.1 mg/mL DDNP stock solution was prepared, which was adjusted to 8 mM in 100% ethanol. A DDNP working solution was prepared by diluting the stock solution with distilled water in a ratio of 1:100-1000 (stock solution:distilled water).

[2] = target: T2, β-amyloid 1-40 injected into rat cortex (Homo sapiens, UniProt P05067); test: DDNP labeling of β-amyloid injected into rat brain in vivo; details: rats, FIGS. 2A to 2E
T2 construct: unilateral stereotaxic injection of 3 μg of aggregated β-amyloid 1-40 into rat cortex; host or cells: exogenous peptide fibrils injected into rat brain
T2 sequence (P05067 672-711 limits assumed): as above
Procedure: β-amyloid 250 μM (1.25 mg/mL in distilled water) was aggregated at 37° C. for 48 hours to produce fibrils confirmed by smears. Three rats were anesthetized. 3 μL of a solution of Aβ fibrils (1.25 μg/μL) were injected unilaterally into the cortex of each rat (Bregma 0, AP-4.1 mm, ML+2.0 mm, DV-3.1 mm). Then 3 μL of phosphate buffered saline (PBS) were injected into the contralateral side of each rat brain as a vehicle control. After injection, the needle remained for 5 minutes to prevent reflux, and then the cranial hole was sealed with bone wax. Eight days after β-amyloid injection into the rat brains, the rats were injected with 10 microliters of DDNP working solution (320 micromolar) prepared by diluting DDNP stock solution into 1.5% BSA (bovine serum albumin) in phosphate buffered saline, pH 7.2).
After one hour, the rats were cardiac perfused with PLP fixative (4% paraformaldehyde, 1% lysin in 0.05 M phosphate buffer, pH 7.4). Additional immersion fixation of rat brain was at 4° C. overnight with PLP fixative. The rat brains were washed with PBS, saturated in 10 and 20% sucrose, and snap frozen in chilled isopentane (−70° C.) with liquid nitrogen. The brains were cryostat sectioned at […] around the needle-track and directly coverslipped with glycerol and fluorescence protectant (Vectashield™).

[3] = system: neurofibrillary tangles, amyloid peptides, and diffuse amyloid; test: In vitro fluorescence labeling of Alzheimer's disease brain specimens with DDNP and [F-18]FDDNP; parameters: species or system human; details: all Alzheimer's disease brain specimens
[4] = system: amyloid plaques and tangles; test: DDNP fluorescence labeling of brain tissue sections in vitro; parameters: species or system human
Procedure: as §1
β-amyloid 250 μM (1.25 mg/mL in distilled water) was aggregated at 37° C. for 48 hours. 5 μL were smeared on slides, air-dried and then rehydrated with distilled water. Alternatively, Aβ-positive brain tissue sections were rehydrated with distilled water. DDNP working solution was applied to each slide for 30 minutes at room temperature. The slides were washed three times for five minutes with distilled water. The slides were coverslipped with fluorescent protectant mounding media (Vectashield™, available Vector Labs., Burlingame, Calif.) and observed under a fluorescence microscope with a thioflavin S or FITC filter.

[5] = system: β-amyloid plaques and neurofibrillary tangles; test: PET with [F-18]FDDNP in patients; type: in vivo, human
Procedure: A patient was placed in a tomograph to obtain brain dynamic PET images. 8.0 mCi of 2-(1.1-dicyanopropen-2-yl)-6-(2-[^18F]-fluoroethyl)-methylamino)-naphthalene ([F18]FDDNP) (specific activity: 5-12 Ci/micromol; mass: ˜1 nanomol), prepared as described in Example 1(f), were injected intravenously into the arm of the patient. Dynamic acquisition data of brain images were recorded simultaneously in forty-seven brain planes for two hours.
Labeling and detection of human β-amyloid plaques and neurofibrillary tangles in vivo were conducted using the following procedures. Ten human subjects, seven Alzheimer's diseased patients (ages 71 to 80) and three control patients (ages 62 to 82) were studied. The patients were positioned supine in an EXACT HR+962 tomograph (Siemens-CTI, Knoxville, Tenn.) with the imaging plane parallel to the orbito-meatal line. Venous catheterization was performed, and then [F-18]FDDNP (5-10 mCi) in human serum albumin (25%) was administered as a bolus via the venous catheter. Sequential emission scans were obtained beginning immediately after [F-18]FDDNP administration using the following scan sequence: six 30 second scans, four 3 minute scans, five 10 minute scans, and three 20 minute scans. Rapid venous blood sampling was performed via the indwelling catheter in two subjects for input function determination and plasma metabolite analysis.
The residence time shown is in reference to that in the pons, an area known to have limited involvement in Alzheimer's disease pathology. The residence time was calculated from the clearance rates of the tracer in affected regions of interest (ROI) and in the pons as: Residence time=[1/clearance rate for affected ROI]−[1/clearance rate for pons] Separate ROIs were defined in entorhinal cortex, hippocampus, lateral temporal cortex and pons. The region with the slowest clearance rate was used as the affected ROI in the calculation of the residence time shown in FIG. 4.

[6] = AD brain specimens pretreated with 40 μM agent for 60 min
[7] = AD brain specimens pretreated with 100 nM agent for 60 min
[8] = cortex of the brain of an Alzheimer's disease patient, FIG. 1B

melting point: 213 to 215 °C
Structure (SMILES): CN(C)/C=C/C(=C(C#N)C#N)c1ccc2cc(N(C)C)ccc2c1

melting point: 198 to 200 °C
Structure (SMILES): CN(C)c1ccc2cc(-c3ccnc(Cl)c3C#N)ccc2c1

melting point: 256 to 257 °C
Structure (SMILES): CN(C)c1ccc2cc(-c3ccnc(N)c3C#N)ccc2c1.O

melting point: 150 to 151 °C
Structure (SMILES): COc1nccc(-c2ccc3cc(N(C)C)ccc3c2)c1C#N

melting point: 168 to 170 °C
Structure (SMILES): CN(C)c1ccc2cc(C(/C=C\NCCO)=C(C#N)C#N)ccc2c1

melting point: 210 to 212 °C
Structure (SMILES): CN(C)c1ccc2cc(-c3ccnc(SCCO)c3C#N)ccc2c1

melting point: 268 to 269 °C
Structure (SMILES): CN(C)c1ccc2cc(-c3ccn4ccnc4c3C#N)ccc2c1

Ki (β-amyloid (1-40) fibrils): 44.4 ± 17.4 µM | specific binding of [18F]FDDNP to regions of gray matter with senile plaques (senile plaques; [6]): significantly reduced
Structure (SMILES): CC(C)Cc1ccc([C@@H](C)C(=O)O)cc1 [(R)-ibuprofen]

Ki (β-amyloid (1-40) fibrils): 11.3 ± 5.2 µM | specific binding of [18F]FDDNP to regions of gray matter with senile plaques (senile plaques; [6]): significantly reduced
Structure (SMILES): CC(C)Cc1ccc([C@H](C)C(=O)O)cc1 [(S)-ibuprofen]

Ki (β-amyloid (1-40) fibrils): 0.0057 ± 0.00131 µM | specific binding of [18F]FDDNP to regions of gray matter with senile plaques (senile plaques; [7]): significantly reduced
Structure (SMILES): COc1ccc2cc([C@H](C)C(=O)O)ccc2c1 [(S)-naproxen]

specific binding of [18F]FDDNP to regions of gray matter with senile plaques (senile plaques; [6]): minimal effect
Structure (SMILES): Nc1c(/N=N/c2ccc(-c3ccc(/N=N/c4cc(S(=O)(=O)O)c5ccccc5c4N)cc3)cc2)cc(S(=O)(=O)O)c2ccccc12 [CR, Congo red]
dose dependent decrease in the specific binding of [18F]FDDNP (β-amyloid (1-40) fibrils): did not exhibit a dose dependent decrease

Structure (SMILES): O=C(O)c1cc(/N=N/c2ccc(-c3ccc(/N=N/c4ccc(O)c(C(=O)O)c4)cc3)cc2)ccc1O [Chrysamine G]
ability to label amyloid plaques in Alzheimer's brain (amyloid plaques): appears weak

Structure (SMILES): CC(=C(C#N)C#N)c1ccc2cc(N(C)C)ccc2c1 [DDNP, 2-(1,1-dicyanopropen-2-yl)-6-dimethylaminonaphthalene]
stability of stock solution [1]: can be kept in the freezer for six months and still produce acceptable results | passage of the blood brain barrier [2]: passes the blood brain barrier | visualization of neurofibrillary tangles, amyloid peptides, and diffuse amyloid [3]: excellent visualization | melting point: 154.5 to 155 °C | labeling of plaques [4, 8]: strong | labeling of tangles [4, 8]: weak | labeling of amyloid deposits in cryostat and paraffin sections of AD brain tissue ([4]; fluorescence microscopy): readily labeled amyloid deposits

specific binding of [18F]FDDNP to regions of gray matter with senile plaques (senile plaques; [6]): minimal effect
Structure (SMILES): O=C(O)Cc1ccccc1Nc1c(Cl)cccc1Cl [Diclofenac, diclofenac]
dose dependent decrease in the specific binding of [18F]FDDNP (β-amyloid (1-40) fibrils): did not exhibit a dose dependent decrease

Structure (SMILES): CC(=C(C#N)C#N)c1ccc2cc(N(C)CCF)ccc2c1 [FDDNP]
specific binding of [18F]FDDNP to regions of gray matter with senile plaques (senile plaques; [7]): significantly reduced

specific binding of [18F]FDDNP to regions of gray matter with senile plaques (senile plaques; [6]): minimal effect
Structure (SMILES): Cc1ccc2c(c1)sc(-c1ccc(N(C)C)cc1)[n+]2C.[Cl-] [TT, Thioflavine T]
dose dependent decrease in the specific binding of [18F]FDDNP (β-amyloid (1-40) fibrils): did not exhibit a dose dependent decrease

Structure (SMILES): CC(=C(C#N)C#N)c1ccc2cc(N(C)CC[18F])ccc2c1 [[F-18]FDDNP]
estimated residence time (in reference to pons) ([5]; Alzheimer's diseased patients versus control patients, FIG. 4): different from values in control patients | regional clearance from brain ([5]; brain areas known to accumulate β-amyloid plaques and neurofibrillary tangles): slower clearance | crossing of the blood brain barrier ([5]; human, intravenous injection): crosses the blood brain barrier readily in proportion to blood flow | visualization of neurofibrillary tangles, amyloid peptides, and diffuse amyloid [3]: excellent visualization
